The target in assay [1] is Coagulation factor X (Homo sapiens, UniProt P00742). Put plainly: Compound was evaluated for inhibition of amidolytic activity for chromogenic substrate Coagulation factor X.
In assay [2] the target is Prothrombin (Homo sapiens, UniProt P00734). Put plainly: Compound was evaluated for inhibition of amidolytic activity for chromogenic substrate thrombin […].
Assay [3] deals with T1, Trypsin II (Bos taurus, UniProt Q29463).
T1 sequence (Q29463 whole entry): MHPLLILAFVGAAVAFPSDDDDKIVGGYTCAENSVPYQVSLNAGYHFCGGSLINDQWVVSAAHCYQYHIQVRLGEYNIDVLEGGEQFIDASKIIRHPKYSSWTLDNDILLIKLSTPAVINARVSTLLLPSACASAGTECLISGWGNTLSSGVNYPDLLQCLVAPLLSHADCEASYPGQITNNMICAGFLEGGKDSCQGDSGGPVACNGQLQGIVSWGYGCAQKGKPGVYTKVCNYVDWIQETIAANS
Put plainly: Compound was evaluated for inhibition of amidolytic activity for chromogenic substrate trypsin.

Sequence of Coagulation factor X (P00742 41-179 limits assumed): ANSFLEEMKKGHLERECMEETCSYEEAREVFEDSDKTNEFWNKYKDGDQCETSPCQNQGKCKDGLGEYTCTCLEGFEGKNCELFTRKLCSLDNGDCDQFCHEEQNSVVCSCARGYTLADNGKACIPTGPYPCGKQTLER
Sequence of Coagulation factor X (P00742 235-488 limits assumed): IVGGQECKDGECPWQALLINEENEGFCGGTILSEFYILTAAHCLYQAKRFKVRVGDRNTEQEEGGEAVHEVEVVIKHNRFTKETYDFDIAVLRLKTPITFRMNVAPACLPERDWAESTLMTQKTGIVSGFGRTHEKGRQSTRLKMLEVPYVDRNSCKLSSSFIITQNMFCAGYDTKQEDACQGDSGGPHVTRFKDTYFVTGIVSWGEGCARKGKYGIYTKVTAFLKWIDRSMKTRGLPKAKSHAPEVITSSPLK

Regarding `N=C(N)NCCC[C@@H](C=O)NC(=O)CN1CCC[C@H](NS(=O)(=O)Cc2ccccc2)C1=O`, the IC50 – broadly, the concentration needed to halve the response being measured – is over 2500 nM in assay [1], 12.4 nM in assay [2] and 1550 nM in assay [3].

As for `[H]/N=C(\N)N1CCC[C@@H](C[C@@H](C=O)NC(=O)CN2CCC[C@H](NS(=O)(=O)Cc3ccccc3)C2=O)C1`, the IC50 in assay [1] is over 25000 nM; in assay [2], 0.67 nM; in assay [3], 68400 nM.

With `CCCC(CCC)C(=O)N[C@@H](CC(=O)OC)C(=O)N1CCC[C@H]1C(=O)N[C@H](C=O)CCCNC(=N)N`, the IC50 in assay [1] was 301 nM; in assay [3], 1.2 nM.

Take `N=C(N)N1CCC[C@H](C[C@@H](C=O)NC(=O)CN2CCC[C@H](NS(=O)(=O)Cc3ccccc3)C2=O)C1`: the 50% inhibitory concentration (IC50) is over 25000 nM in assay [1], 28.8 nM in assay [2] and 60700 nM in assay [3].

On to `N=C(N)NCCC[C@@H](C=O)NC(=O)CN1CCCC[C@H](NS(=O)(=O)Cc2ccccc2)C1=O`, for which the IC50 in assay [1] came to 20.6 nM; in assay [2], 0.71 nM; in assay [3] it was 329 nM.

On to `CCCC(CCC)C(=O)N[C@@H](CC(=O)OC)C(=O)N1CCC[C@H]1C(=O)N[C@H](C=O)CC1CCCN(C(=N)N)C1` (stereo in doubt; 4a), for which the IC50 in assay [1] is over 2500 nM; in assay [3], 113 nM.

Consider `CCCC(CCC)C(=O)N[C@@H](CC(=O)OC)C(=O)N1CCC[C@H]1C(=O)N[C@H](C=O)CC1CCCN(C(=N)N)C1` (stereo in doubt; 4b), for which the IC50 in assay [1] is over 2500 nM; in assay [3], 69.7 nM.

As for `N=C(N)N1CCCC(C[C@@H](C=O)NC(=O)CN2CCCC[C@H](NS(=O)(=O)Cc3ccccc3)C2=O)C1` (stereo in doubt; 6a), the results for the IC50 in assay [1] and in assay [3] were over 2500 nM and 15100 nM, respectively.

Regarding `N=C(N)N1CCCC(C[C@@H](C=O)NC(=O)CN2CCCC[C@H](NS(=O)(=O)Cc3ccccc3)C2=O)C1` (stereo in doubt; 6b), the results for the IC50 in assay [1] and in assay [3] were over 25000 nM and 45800 nM, respectively.

The values are drawn from ChEMBL document CHEMBL1129391, “Potent and selective thrombin inhibitors incorporating the constrained arginine mimic l-3-piperidyl(N-guanidino)alanine at P1” (J Med Chem, 1996).
